From patent US5091305A, “Bile acid sulfate sulfatase, process for its preparation and method for assaying bile acid” (Marukin Shoyu Co., Ltd., priority 1988, dated 1992)
Where two headings read alike, the source gives them in different places.

How the values were obtained:
[1] = system: bile acid sulfate sulfatase; experiment: Activity of the present Enzyme on substrates (coupled β-hydroxysteroid dehydrogenase/NADH assay, absorbance at 340 nm); assay type: biochemical, Pseudomonas testosteroni; conditions: for Relative activity (substrate specificity): lithocholic acid 3α-sulfate = 100
Description: (§1) The physicochemical properties of the present Enzyme are further described below. The activity of the present Enzyme is measured as follows. That is, into a quartz cell are placed 0.1 ml of 2.5 mM aqueous solution of lithocholic acid 3α-sulfate (Sigma), 0.2 ml of 15 mM aqueous solution of β-NAD (Oriental Yeast), 1.0 ml of 0.1M tris-hydrochloric acid buffer solution (pH 8.0) and 1.55 ml of distilled water, and after equilibrating at 30° C., 0.05 ml of β-hydroxysteroid dehydrogenase (Sigma) solution (10 U/ml) and 0.1 ml of a solution of the present Enzyme are sequentially added thereto and the reaction is effected at 30° C., and the increase of the absorbance at 340 nm in the initial stage of the reaction is determined. Under these conditions, the enzyme activity producing 1 μmol of NADH per minute is defined as 1 unit.
(b) Substrate specificity: Acting on 3α-sulfates of nonconjugated bile acids, and 3α-sulfates each of glycine-conjugated and taurine-conjugated bile acids.

[2] = system: bile acid sulfate sulfatase; experiment: Inhibition and activation of the present Enzyme by additives; assay type: biochemical, Pseudomonas testosteroni
Description: as §1

[3] = additive 2 mM, no additive = 100
[4] = additive 1 mM, no additive = 100
[5] = effect of the substance on the present Enzyme

Row | Compound | Relative activity (substrate specificity) [1] | Relative Activity [2, 3] | other results
1 | 4-Nitrocatechol sulfate | 0% |  | 
2 | C[C@H](CCC(=O)O)[C@H]1CC[C@H]2[C@@H]3CC=C4C[C@@H](OS(=O)(=O)O)CC[C@]4(C)[C@H]3CC[C@]12C [3β-Hydroxy-5-cholenic acid 3-sulfate] | 0% |  | 
3 | [Cl][Cd][Cl] [Cadmium chloride] |  | 98% | 
4 | C[C@H](CCC(=O)O)[C@H]1CC[C@H]2[C@@H]3[C@H](O)C[C@@H]4C[C@H](OS(=O)(=O)O)CC[C@]4(C)[C@H]3C[C@H](O)[C@]12C [Cholic acid 3α-sulfate] | 238% |  | 
5 | [Cl][Co][Cl] [Cobalt chloride] |  | 92% | 
6 | O=S(=O)([O-])[O-].[Cu+2] [Copper sulfate] |  | 94% | 
7 | O=C(O)CN(CCN(CC(=O)O)CC(=O)O)CC(=O)O [EDTA] |  |  | Relative Activity [2, 4]: 38%; Relative Activity ([2]; additive 5 mM, no additive = 100): 25%; Inhibition and activation (in words) [2, 5]: inhibited
8 | C[C@H](CCC(=O)NCC(=O)O)[C@H]1CC[C@H]2[C@@H]3CC[C@@H]4C[C@H](OS(=O)(=O)O)CC[C@]4(C)[C@H]3CC[C@]12C [Glycolithocholic acid 3α-sulfate] | 11% |  | 
9 | C[C@H](CCC(=O)O)[C@H]1CC[C@H]2[C@@H]3CC[C@@H]4C[C@H](OS(=O)(=O)O)CC[C@]4(C)[C@H]3CC[C@]12C [Lithocholic acid 3α-sulfate] | 100% |  | Km ([1]; Km of the present Enzyme to the substrate): 6 µM
10 | O=S(=O)([O-])[O-].[Mg+2] [Magnesium sulfate] |  | 101% | 
11 | [Cl][Mn][Cl] [Manganese chloride] |  | 111% | Inhibition and activation (in words) [2, 5]: Activated
12 | [Cl][Hg][Cl] [Mercuric chloride] |  | 71% | Relative Activity [2, 4]: 90%
13 | O=C(O)CI [Monoiodoacetic acid] |  |  | Inhibition and activation (in words) [2]: Hardly inhibited; Relative Activity ([2]; 2000 µM): 98%
14 | [N-]=[N+]=[N-] [Sodium azide] |  |  | Relative Activity ([2]; additive 10 mM, no additive = 100): 100%
15 | [F-].[Na+] [Sodium fluoride] |  | 98% | 
16 | C[C@H](CCC(=O)NCCS(=O)(=O)O)[C@H]1CC[C@H]2[C@@H]3CC[C@@H]4C[C@H](OS(=O)(=O)O)CC[C@]4(C)[C@H]3CC[C@]12C [Taurolithocholic acid 3α-sulfate] | 2% |  | 
17 | O=S(=O)([O-])[O-].[Zn+2] [Zinc sulfate] |  | 95% | 
18 | c1cnc2c(c1)ccc1cccnc12 [o-Phenanthroline] |  |  | Relative Activity [2, 4]: 37%; Inhibition and activation (in words) [2, 5]: inhibited
19 | O=C(O)c1cc[c]([Hg][Cl])cc1 [p-Chloromercuribenzoate] |  |  | Relative Activity ([2]; additive 0.2 mM, no additive = 100): 98%; Inhibition and activation (in words) [2, 5]: Hardly inhibited
20 | c1ccc(-c2ccccn2)nc1 [α,α'-Dipyridyl] |  |  | Relative Activity [2, 4]: 97%
